In patent publication US20250059171A1 (Hoffmann-La Roche Inc., priority 2021, published 2025):

Key:
SARS-CoV-2 3CLpro = SARS-CoV-2 3CLpro (Severe acute respiratory syndrome coronavirus 2, UniProt P0DTD1); assay: biochemical
HCoV-229E 3CLpro = HCoV-229E 3CLpro (Human coronavirus 229E, UniProt P0C6X1); assay: HCoV-229E 3CLpro inhibition assay (FRET); assay type: biochemical
MERS-CoV 3CLpro = MERS-CoV 3CLpro (Middle East respiratory syndrome-related coronavirus, UniProt K9N7C7); assay: biochemical
Chain of MERS-CoV 3CLpro (K9N7C7 3248-3553): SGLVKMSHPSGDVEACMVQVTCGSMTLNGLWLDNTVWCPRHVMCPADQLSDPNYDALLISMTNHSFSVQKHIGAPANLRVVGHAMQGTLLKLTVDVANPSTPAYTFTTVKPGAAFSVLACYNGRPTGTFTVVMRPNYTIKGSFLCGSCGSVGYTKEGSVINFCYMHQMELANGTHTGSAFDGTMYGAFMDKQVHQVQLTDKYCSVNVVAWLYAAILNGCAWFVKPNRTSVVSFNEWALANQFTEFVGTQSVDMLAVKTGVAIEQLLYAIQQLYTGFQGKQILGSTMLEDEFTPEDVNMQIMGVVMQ

SARS-CoV 3CLpro = SARS-CoV 3CLpro (Severe acute respiratory syndrome coronavirus, UniProt P0C6X7); assay: biochemical

Chain of HCoV-229E 3CLpro (P0C6X1 2966-3267): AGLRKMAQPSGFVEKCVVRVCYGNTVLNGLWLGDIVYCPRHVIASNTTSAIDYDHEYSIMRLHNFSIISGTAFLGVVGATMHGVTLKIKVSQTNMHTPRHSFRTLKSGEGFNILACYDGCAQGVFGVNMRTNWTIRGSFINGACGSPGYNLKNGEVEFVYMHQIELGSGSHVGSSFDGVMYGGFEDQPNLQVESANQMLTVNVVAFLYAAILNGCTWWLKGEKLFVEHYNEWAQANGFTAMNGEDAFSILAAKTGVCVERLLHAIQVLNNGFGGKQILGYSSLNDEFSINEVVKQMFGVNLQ

SMILES | IC50 (SARS-CoV-2 3CLpro) [nM] | IC50 (HCoV-229E 3CLpro) [nM] | IC50 (MERS-CoV 3CLpro) [nM] | IC50 (SARS-CoV 3CLpro) [nM]
CC[C@@H](C)[C@H](NC(=O)C1(F)CC1)C(=O)N1C[C@H]2[C@@H]([C@H]1C(=O)NN(C[C@@H]1CCNC1=O)C(=O)[C@H](F)Cl)C2(C)C [Example 115, N-[(1S,2R)-1-[(1R,2S,5S)-2-[[[(2R)-2-chloro-2-fluoro-acetyl]-[[(3S)-2-oxopyrrolidin-3-yl]methyl]amino]carbamoyl]-6,6-dimethyl-3-azabicyclo[3.1.0]hexane-3-carbonyl]-2-methyl-butyl]-1-fluoro-cyclopropanecarboxamide] | 9 | 30 | 102 | 15
CC[C@@H](C)[C@H](NC(=O)[C@@H](C)F)C(=O)N1C[C@H]2[C@@H]([C@H]1C(=O)NN(C[C@@H]1CCNC1=O)C(=O)[C@H](F)Cl)C2(C)C [Example 116, (2R)—N-[(1S,2R)-1-[(1R,2S,5S)-2-[[[(2R)-2-chloro-2-fluoro-acetyl]-[[(3S)-2-oxopyrrolidin-3-yl]methyl]amino]carbamoyl]-6,6-dimethyl-3-azabicyclo[3.1.0]hexane-3-carbonyl]-2-methyl-butyl]-2-fluoro-propanamide] | 14 | 36 | 98 | 18
CC[C@@H](C)[C@H](NC(=O)[C@H](C)F)C(=O)N1C[C@H]2[C@@H]([C@H]1C(=O)NN(C[C@@H]1CCNC1=O)C(=O)[C@H](F)Cl)C2(C)C [Example 117, (2S)—N-[(1S,2R)-1-[(1R,2S,5S)-2-[[[(2R)-2-chloro-2-fluoro-acetyl]-[[(3S)-2-oxopyrrolidin-3-yl]methyl]amino]carbamoyl]-6,6-dimethyl-3-azabicyclo[3.1.0]hexane-3-carbonyl]-2-methyl-butyl]-2-fluoro-propanamide] | 11 | 25 | 86 | 11
CC[C@@H](C)[C@H](NC(=O)C1CC1)C(=O)N1C[C@H]2[C@@H]([C@H]1C(=O)NN(C[C@@H]1CCNC1=O)C(=O)[C@H](F)Cl)C2(C)C [Example 118, N-[(1S,2R)-1-[(1R,2S,5S)-2-[[[(2R)-2-chloro-2-fluoro-acetyl]-[[(3S)-2-oxopyrrolidin-3-yl]methyl]amino]carbamoyl]-6,6-dimethyl-3-azabicyclo[3.1.0]hexane-3-carbonyl]-2-methyl-butyl]cyclopropanecarboxamide] | 13 | 27 | 109 | 18
CC[C@@H](C)[C@H](NC(=O)C1(F)CCC1)C(=O)N1C[C@H]2[C@@H]([C@H]1C(=O)NN(C[C@@H]1CCNC1=O)C(=O)[C@H](F)Cl)C2(C)C [Example 119, N-[(1S,2R)-1-[(1R,2S,5S)-2-[[[(2R)-2-chloro-2-fluoro-acetyl]-[[(3S)-2-oxopyrrolidin-3-yl]methyl]amino]carbamoyl]-6,6-dimethyl-3-azabicyclo[3.1.0]hexane-3-carbonyl]-2-methyl-butyl]-1-fluoro-cyclobutanecarboxamide] | 15 | 56 | 206 | 20
CC[C@@H](C)[C@H](NC(=O)C(F)F)C(=O)N1C[C@H]2[C@@H]([C@H]1C(=O)NN(C[C@@H]1CCNC1=O)C(=O)[C@@H](F)Cl)C2(C)C [Example 120, N-[(1S,2R)-1-[(1R,2S,5S)-2-[[[(2S)-2-chloro-2-fluoro-acetyl]-[[(3S)-2-oxopyrrolidin-3-yl]methyl]amino]carbamoyl]-6,6-dimethyl-3-azabicyclo[3.1.0]hexane-3-carbonyl]-2-methyl-butyl]-2,2-difluoro-acetamide] | 19 | 38 | 98 | 34
CC[C@@H](C)[C@H](NC(=O)C1(F)CC1)C(=O)N1C[C@H]2[C@@H]([C@H]1C(=O)NN(C[C@@H]1CCNC1=O)C(=O)[C@@H](F)Cl)C2(C)C [Example 121, N-[(1S,2R)-1-[(1R,2S,5S)-2-[[[(2S)-2-chloro-2-fluoro-acetyl]-[[(3S)-2-oxopyrrolidin-3-yl]methyl]amino]carbamoyl]-6,6-dimethyl-3-azabicyclo[3.1.0]hexane-3-carbonyl]-2-methyl-butyl]-1-fluoro-cyclopropanecarboxamide] | 26 | 43 | 131 | 50
CC[C@@H](C)[C@H](NC(=O)[C@H](C)F)C(=O)N1C[C@H]2[C@@H]([C@H]1C(=O)NN(C[C@@H]1CCNC1=O)C(=O)[C@@H](F)Cl)C2(C)C [Example 122, (2S)—N-[(1S,2R)-1-[(1R,2S,5S)-2-[[[(2S)-2-chloro-2-fluoro-acetyl]-[[(3S)-2-oxopyrrolidin-3-yl]methyl]amino]carbamoyl]-6,6-dimethyl-3-azabicyclo[3.1.0]hexane-3-carbonyl]-2-methyl-butyl]-2-fluoro-propanamide] | 26 | 46 | 146 | 36
CC[C@@H](C)[C@H](NC(=O)[C@@H](C)F)C(=O)N1C[C@H]2[C@@H]([C@H]1C(=O)NN(C[C@@H]1CCNC1=O)C(=O)[C@@H](F)Cl)C2(C)C [Example 123, (2R)—N-[(1S,2R)-1-[(1R,2S,5S)-2-[[[(2S)-2-chloro-2-fluoro-acetyl]-[[(3S)-2-oxopyrrolidin-3-yl]methyl]amino]carbamoyl]-6,6-dimethyl-3-azabicyclo[3.1.0]hexane-3-carbonyl]-2-methyl-butyl]-2-fluoro-propanamide] | 37 | 51 | 146 | 62
CC[C@H](C)[C@H](NC(=O)C1CC(F)(F)C1)C(=O)N1C[C@@H]2CCC[C@@H]2[C@H]1C(=O)NN(C[C@@H]1CCNC1=O)C(=O)[C@H](F)Cl [Example 126, N-[(1S,2S)-1-[(3S,3aS,6aR)-3-[[[(2R)-2-chloro-2-fluoro-acetyl]-[[(3S)-2-oxopyrrolidin-3-yl]methyl]amino]carbamoyl]-3,3a,4,5,6,6a-hexahydro-1H-cyclopenta[c]pyrrole-2-carbonyl]-2-methyl-butyl]-3,3-difluoro-cyclobutanecarboxamide] | 10 | 28 | 68 | 11
CC[C@H](C)[C@H](NC(=O)C(F)F)C(=O)N1C[C@@H]2CCC[C@@H]2[C@H]1C(=O)NN(C[C@@H]1CCNC1=O)C(=O)[C@@H](F)Cl [Example 127, N-[(1S,2S)-1-[(3S,3aS,6aR)-3-[[[(2S)-2-chloro-2-fluoro-acetyl]-[[(3S)-2-oxopyrrolidin-3-yl]methyl]amino]carbamoyl]-3,3a,4,5,6,6a-hexahydro-1H-cyclopenta[c]pyrrole-2-carbonyl]-2-methyl-butyl]-2,2-difluoro-acetamide] | 10 | 35 | 68 | 12
CC[C@@H](C)[C@H](NC(=O)C1CC(F)(F)C1)C(=O)N1C[C@@H]2CCC[C@@H]2[C@H]1C(=O)NN(C[C@@H]1CCNC1=O)C(=O)[C@H](F)Cl [Example 128, N-[(1S,2R)-1-[(3S,3aS,6aR)-3-[[[(2R)-2-chloro-2-fluoro-acetyl]-[[(3S)-2-oxopyrrolidin-3-yl]methyl]amino]carbamoyl]-3,3a,4,5,6,6a-hexahydro-1H-cyclopenta[c]pyrrole-2-carbonyl]-2-methyl-butyl]-3,3-difluoro-cyclobutanecarboxamide] | 11 | 36 | 97 | 18
CCC(CC)[C@H](NC(=O)C1CC1)C(=O)N1C[C@H]2[C@@H]([C@H]1C(=O)NN(C[C@@H]1CCNC1=O)C(=O)[C@H](F)Cl)C2(C)C [Example 129, N-[(1S)-1-[(1R,2S,5S)-2-[[[(2R)-2-chloro-2-fluoro-acetyl]-[[(3S)-2-oxopyrrolidin-3-yl]methyl]amino]carbamoyl]-6,6-dimethyl-3-azabicyclo[3.1.0]hexane-3-carbonyl]-2-ethyl-butyl]cyclopropanecarboxamide] | 11 | 29 | 104 | 16
CCC(CC)[C@H](NC(=O)C1CC(F)(F)C1)C(=O)N1C[C@H]2[C@@H]([C@H]1C(=O)NN(C[C@@H]1CCNC1=O)C(=O)[C@H](F)Cl)C2(C)C [Example 130, N-[(1S)-1-[(1R,2S,5S)-2-[[[(2R)-2-chloro-2-fluoro-acetyl]-[[(3S)-2-oxopyrrolidin-3-yl]methyl]amino]carbamoyl]-6,6-dimethyl-3-azabicyclo[3.1.0]hexane-3-carbonyl]-2-ethyl-butyl]-3,3-difluoro-cyclobutanecarboxamide] | 12 | 32 | 87 | 19
CCC(CC)[C@H](NC(=O)C(F)F)C(=O)N1C[C@H]2[C@@H]([C@H]1C(=O)NN(C[C@@H]1CCNC1=O)C(=O)[C@H](F)Cl)C2(C)C [Example 131, N-[(1S)-1-[(1R,2S,5S)-2-[[[(2R)-2-chloro-2-fluoro-acetyl]-[[(3S)-2-oxopyrrolidin-3-yl]methyl]amino]carbamoyl]-6,6-dimethyl-3-azabicyclo[3.1.0]hexane-3-carbonyl]-2-ethyl-butyl]-2,2-difluoro-acetamide] | 10 | 26 | 158 | 14
CCC(CC)[C@H](NC(=O)C1(F)CC1)C(=O)N1C[C@H]2[C@@H]([C@H]1C(=O)NN(C[C@@H]1CCNC1=O)C(=O)[C@H](F)Cl)C2(C)C [Example 132, N-[(1S)-1-[(1R,2S,5S)-2-[[[(2R)-2-chloro-2-fluoro-acetyl]-[[(3S)-2-oxopyrrolidin-3-yl]methyl]amino]carbamoyl]-6,6-dimethyl-3-azabicyclo[3.1.0]hexane-3-carbonyl]-2-ethyl-butyl]-1-fluoro-cyclopropanecarboxamide] | 10 | 25 | 106 | 14
